Experimental data as given in patent publication US20240191303A1, “METHODS FOR OPTIMIZING THE TREATMENT OF COLORECTAL CANCER” (Brown University, priority 2021, published 2024).
“Also recorded” adds a separate entry of the source. Read-outs that look alike come from different tables or passages of the source.

Columns and labels:
[1] = oxaliplatin-treated mice; cited from earlier work
[2] = cited from earlier work
[3] = test system: HCT116 cells (wild-type); assay: Cytokine profiling of cell supernatants (Luminex 200), wild-type cells; type: cell-based, human; settings: IC50, 48 h
Protocol: (§1) Cytokine profiling. A total of 4×10^4 HCT116 or HCT116 p53^−/− cells were plated per well of a 24-well plate and incubated twelve-sixteen hours before treatment with […], CPT-11, oxaliplatin, cisplatin, or various combination treatments at the appropriate IC50 (combination treatments received each drug at their IC50). Cell supernatants were collected at forty-eight hours after treatment and stored at −20° C. Samples were prepared and run in triplicate on a Luminex 200 Instrument (R&D LX200-XPON-RUO). Sample preparation was conducted, and instrument settings were selected based on the Human Magnetix Luminex Assay (R&D LXSAHM) protocol.
(§2) Cytokine profiling. Results were analyzed in GraphPad prism, and statistical significance across drugs was determined separately for wild-type and ^−/− cells with a one-way ANOVA. p-values<0.05 were considered significant.
(§3) HCT116 and HCT116 p53^−/− cells were treated with the four drugs (5-FU, CPT-11, oxaliplatin, and cisplatin) at their IC50s and combination treatment groups received two-three drugs, each at their individual IC50 concentration.

[4] = test system: HCT116 p53−/− cells; assay: Cytokine profiling of cell supernatants (Luminex 200), p53−/− cells; type: cell-based, human; settings: IC50, 48 h
Protocol: as §1, §2, §3

[5] = test system: HCT116 and HCT116 p53−/− cells; assay: Clariom D microarrays, RNA expression relative to untreated cells; type: cell-based, human; settings: IC50 dose, 8 h; for BTG2 induction, rank in p53-dependent gene signature: fold change>2
Protocol: Microarrays. Total cellular RNA was isolated, and Clariom™ D microarrays were used to measure changes in RNA expression relative to untreated cells. A total of 7×10^5 HCT116 and HCT116 p53^−/− cells were plated in a 6-well plate and incubated for twelve-sixteen hours before being treated with 5-fluorouracil, CPT-11, oxaliplatin, or cisplatin at their respective IC50 doses for eight hours. Cell pellets were collected and split into two tubes, one for western blot analysis and one for RNA extraction. Samples were randomized, and RNA was isolated (Qiagen 74134) in five batches to ensure a high-quality RNA product. Acceptable RNA concentration and quality were verified with Nanodrop and Bioanalyzer measurements. Clariom D Microarrays (ThermoFisher 902923) were conducted according to the manufacturer's protocol in two batches on randomized samples to limit batch effects.
Statistical analysis. TAC software was used to calculate fold changes and statistical significance. Microarrays Applied Biosystems Transcriptomic Analysis Console (TAC) software was used to calculate fold-changes in gene expression relative to the untreated control cells. p-values<0.05 were considered significant.
To define a pan-drug signature and to evaluate heterogeneity in the p53 response on a whole-transcriptome scale, the inventors treated HCT116 and HCT116 p53^−/− cells with each of the four drugs at their IC50 for eight hours. The RNA expression relative to an untreated control was measured using microarray analysis. Upregulation of p53 in these samples and equal induction of cell death at this dose and time point was validated by Western blot and CellTiterGlo, respectively, before microarray analysis. […] Each internal control had tightly clustered triplicates. Quality control measurements were also determined to be satisfactory for further analysis.

[6] = test system: HCT116 and HCT116 p53−/− cells; assay: Cytokine profiling of cell supernatants (Luminex 200), p53 status not separated; type: cell-based, human; settings: for VEGF production/release: both HCT116 and HCT116 p53−/−
Protocol: A total of 4×10^4 HCT116 or HCT116 p53^−/− cells were plated per well of a 24-well plate and incubated twelve-sixteen hours before treatment with 55-fluorouracil, CPT-11, oxaliplatin, cisplatin, or various combination treatments at the appropriate IC50 (combination treatments received each drug at their IC50). Cell supernatants were collected at forty-eight hours after treatment and stored at −20° C. Samples were prepared and run in triplicate on a Luminex 200 Instrument (R&D LX200-XPON-RUO). Sample preparation was conducted, and instrument settings were selected based on the Human Magnetix Luminex Assay (R&D LXSAHM) protocol.

[7] = drug at IC50, 48 h, HCT116 vs HCT116 p53−/−
[8] = drug(s) each at IC50, 48 h, vs control

O=C1[O][Pt]2([NH][C@@H]3CCCC[C@H]3[NH]2)[O]C1=O [oxaliplatin, Oxaliplatin]
neuronal damage (upregulation of FOS and ATF3) [1]: neuronal damage | peripheral neuropathy, share of patients [2]: 30-50% | IL-8 level in cell supernatant [3]: did not affect | IL-8 level in cell supernatant [4]: induced | ATF3 transcript regulation [5]: Upregulation | FOS transcript regulation [5]: uniquely upregulated | SAT1 transcript regulation [5]: uniquely upregulated | SUSD2 transcript regulation [5]: uniquely upregulated | transcripts of the 5-fluorouracil/CPT-11/oxaliplatin-specific signature (e.g., SERPINE1, CEACAM1, C1orf116) [5]: upregulated | BTG2 induction, rank in p53-dependent gene signature [5]: top upregulated gene; also recorded: most highly induced gene | IL-8 level in cell supernatant [6]: increase | TRAILR2 level in cell supernatant [6]: down-regulated | p53 dependence of TRAILR2 regulation [6]: dependent on p53 | VEGF production/release ([6]; drug at IC50, 48 h): downregulated

N.N.[Cl][Pt][Cl] [cisplatin]
ferritin level in cell supernatant [4]: large increase | PITPNC1 transcript regulation [5]: downregulation | PRPF39 transcript regulation [5]: upregulation | ROR1 transcript regulation [5]: downregulation | transcripts of the 5-fluorouracil/CPT-11/oxaliplatin-specific signature (e.g., SERPINE1, CEACAM1, C1orf116) [5]: unaffected | BTG2 induction, rank in p53-dependent gene signature [5]: top upregulated gene; also recorded: most highly induced gene | p53 dependence of TRAILR2 regulation [6, 7]: despite p53 status | VEGF production/release ([6]; drug at IC50, 48 h): downregulated | TRAILR2 level in cell supernatant ([6]; drug at IC50, 48 h, vs control): increased | ferritin level in cell supernatant [6, 8]: increase

CCc1c2c(nc3ccc(OC(=O)N4CCC(N5CCCCC5)CC4)cc13)-c1cc3c(c(=O)n1C2)COC(=O)[C@]3(O)CC [CPT-11, Irinotecan]
DRAM1 transcript regulation [5]: p53-dependent, CPT-11-specific regulation | FDXR transcript regulation [5]: p53-dependent, CPT-11-specific regulation | TLR3 transcript regulation [5]: p53-dependent, CPT-11-specific regulation | transcripts of the 5-fluorouracil/CPT-11/oxaliplatin-specific signature (e.g., SERPINE1, CEACAM1, C1orf116) [5]: upregulated | BTG2 induction, rank in p53-dependent gene signature [5]: second most highly induced gene | VEGF production/release ([6]; drug at IC50, 48 h): downregulated | TRAILR2 level in cell supernatant ([6]; drug at IC50, 48 h, vs control): not affected | IL-8 level in cell supernatant [6, 8]: moderate increase

O=c1[nH]cc(F)c(=O)[nH]1 [5-fluorouracil, 5-Fluorouracil]
BAX transcript regulation [5]: slight preferential upregulation; also recorded: preferentially upregulated | histone gene regulation [5]: strikingly unique down-regulation; also recorded: uniquely down-regulated | transcripts of the 5-fluorouracil/CPT-11/oxaliplatin-specific signature (e.g., SERPINE1, CEACAM1, C1orf116) [5]: upregulated | BTG2 induction, rank in p53-dependent gene signature [5]: top upregulated gene; also recorded: most highly induced gene | p53 dependence of TRAILR2 regulation [6, 7]: p53-independent | VEGF production/release ([6]; drug at IC50, 48 h): downregulated | TRAILR2 level in cell supernatant ([6]; drug at IC50, 48 h, vs control): down-regulated

CN(C)C(=N)N=C(N)N [metformin]
reversal of oxaliplatin-induced neuronal damage [1]: reversible
